One experiment concerns NMDA receptor. The following applies: Carter et al 1988; cited from earlier work.
Experiment [1] deals with sigma receptor. The following applies: cited from earlier work.
The target of experiment [2] is sigma receptor (Cavia porcellus, UniProt Q60492). The experiment in a line: biochemical.
Chain of sigma receptor (Cavia porcellus, UniProt Q60492) (Q60492 whole entry): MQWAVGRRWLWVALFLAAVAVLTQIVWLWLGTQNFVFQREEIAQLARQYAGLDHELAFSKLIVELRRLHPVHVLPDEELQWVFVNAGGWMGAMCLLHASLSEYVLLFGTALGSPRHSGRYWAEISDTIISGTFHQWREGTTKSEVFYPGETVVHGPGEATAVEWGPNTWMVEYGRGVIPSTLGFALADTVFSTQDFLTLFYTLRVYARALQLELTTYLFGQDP

As for “1-(4-chlorophenyl)-2-[1-(4-fluorophenyl)piperidinyl]ethanol”, in the experiment with NMDA receptor, the NMDA receptor antagonism result was “non-competitive NMDA receptor antagonists”.

Turning to `CN(CCc1ccc(Cl)c(Cl)c1)[C@@H]1CCCC[C@@H]1N1CCCC1` (single isomer, unassigned) [cis-N-[3,4-dichlorophenylethyl]-N-methyl-2-(1-pyrrolidinyl)cyclohexylamine], the “sigma ligand potency and selectivity” value in the experiment on sigma receptor [1] is “extremely potent and selective ligands for the sigma receptor”. The term Ki denotes a dissociation constant, usually derived from enzyme kinetics or from competition with a known ligand. Read a low Ki as tighter binding. On sigma receptor [2], `CN(CCc1ccc(Cl)c(Cl)c1)CC1CCCCN1C` (stereo not drawn) [Compound 2, 2-[N-[2-(3,4-Dichlorophenyl)ethyl]-N-(methyl)aminomethyl]-1-(methyl)piperidine] registered a Ki of 3.69 ± 0.85 nM. On to `CCN1CCCC1CNCCc1ccc(Cl)c(Cl)c1` (stereo not drawn) [Compound 3, 2-[N-(3,4-dichlorophenylethyl)aminomethyl]-1-(ethyl)pyrrolidine], for which the Ki on sigma receptor [2] was 16 ± 3.62 nM.

Molecule `CCN1CCCC1CN(C)CCc1ccc(Cl)c(Cl)c1` (stereo not drawn) [Compound 4, 2-[N-(3,4-Dichlorophenylethyl)-N-(methyl)aminomethyl]-1-(ethyl)pyrrolidine] returned a Ki on sigma receptor [2] of 1.48 ± 0.37 nM. As for `CC(C(O)c1ccc(O)cc1)N1CCC(Cc2ccccc2)CC1` (stereo not drawn) [ifenprodil], the NMDA receptor antagonism result in the experiment with NMDA receptor is “non-competitive NMDA receptor antagonists”.

The values are drawn from patent US5571832A (priority 1994, dated 1996).
